The record followed here is patent publication US10568828B2, “Peptide having hair growth-promoting activity and use thereof” (CAREGEN CO., LTD., priority 2016, dated 2020).

Common to all, as to format: cell-based
Assay [1] deals with β-catenin. The assay can be described thus: β-Catenin activation test (Western blot of nuclear protein). To be noted: human hair follicle dermal papilla cells, 15 and 30 minutes, Western blot of nuclei. The procedure: Human hair follicle dermal papilla cells were seeded at a density of 4×10^5 cells/well on 6-well plates, followed by incubation overnight. After changing into serum-free medium, the cells were treated with the peptides, followed by incubation for 15 and 30 minutes, and then the wells were harvested to isolate nuclear and cytoplasmic proteins. Western blotting was performed using β-catenin (Santa Cruz Biotechnology, USA) to compare β-catenin expression patterns in nuclei.
Background: In western blotting, separated proteins are transferred to a membrane and probed.

In assay [2] the test system is TGF-β1. The assay can be described thus: TGF-β1 RT-PCR. To be noted: human hair follicle dermal papilla cells, 24 hours. On the procedure: (§1) Human hair follicle dermal papilla cells were seeded at a density of 4×10^5 cells/well on 6-well plates, followed by incubation overnight. After changing into serum-free medium, the cells were treated with the peptides, followed by incubation for 24 hours, and then the wells were harvested to separate RNA. After RNA quantification, cDNA synthesis was conducted using the cDNA synthesis kit (Intron, Korea), followed by PCR using PCR premix (Intron, Korea) and TGF-β1 primers, and then electrophoresis was performed on 5% agarose gel to compare the mRNA expression levels for each sample treatment conditions.

For assay [3], the system named is PI3K. The assay can be described thus: PI3K Western blot. To be noted: human hair follicle dermal papilla cells, 15 and 30 minutes. The procedure:
(§2) Human hair follicle dermal papilla cells were seeded at a density of 4×10^5 cells/well on 6-well plates, followed by incubation overnight. After changing into serum-free medium, the cells were treated with the peptides, followed by incubation for 15 and 30 minutes, and then the wells were harvested to prepare cell lysates. Western blotting was performed using PI3K antibodies (Santa Cruz Biotechnology, USA) and phospho-ERK antibody (Cell Signaling Technology, USA) to compare protein expression patterns.

The subject of assay [4] is Bcl-2. Description: Bcl-2 Western blot. To be noted: human hair follicle dermal papilla cells, 24 hours. The procedure: (§3) Human hair follicle dermal papilla cells were seeded at a density of 4×10^5 cells/well on 6-well plate, followed by incubation overnight. After changing into serum-free medium, the cells were treated with the peptides, followed by incubation for 24 hours, and then the wells were harvested to prepare cell lysates. Western blotting was performed using Bcl-2 and Bax antibodies (Santa Cruz Biotechnology, USA) to compare protein expression patterns.

Assay [5] relates to bFGF. Description: bFGF RT-PCR. To be noted: human hair follicle dermal papilla cells, 24 hours. The procedure: as §1, with “isolate” for “separate”, “respective KGF, bFGF, and VEGF” for “TGF-β1”, “levels of the growth factors” for “levels”
Assay [6] relates to Human hair follicle dermal papilla cells. The assay can be described thus: DPC proliferation assay (MTT). To be noted: serum-free medium, 3 days incubation, absorbance 550 nm. The procedure: Human hair follicle dermal papilla cells were seeded at a density of 2×10^3 cells/well on 96-well plates, followed by incubation overnight. After changing into serum-free medium, the cells were treated with the peptides, followed by incubation for 3 days, and then the wells were treated with 4 mg/ml MTT solution, followed by reaction for 4 hours. The resulting formazan was solubilized with DNSO, and then the absorbance was measured at 550 nm using a microplate reader.

Assay [7] deals with Bax. Description: Bax Western blot. To be noted: human hair follicle dermal papilla cells, 24 hours. The procedure:
as §3

For assay [8], the system named is keratin-14. The assay can be described thus: Keratin-14 RT-PCR. To be noted: human hair follicle dermal papilla cells, 24 hours. The procedure: as §1, with “5×10^5” for “4×10^5”, “isolate” for “separate”, “keratin” for “TGF-β1”, “respective” for “each”
Assay [9] concerns ERK. The assay can be described thus: p-ERK Western blot. To be noted: human hair follicle dermal papilla cells, 15 and 30 minutes. The procedure:
as §2

Assay [10] concerns KGF. The assay can be described thus: KGF RT-PCR. To be noted: human hair follicle dermal papilla cells, 24 hours. On the procedure:
as §1, with “isolate” for “separate”, “respective KGF, bFGF, and VEGF” for “TGF-β1”, “levels of the growth factors” for “levels”

Assay [11] relates to VEGF. Description: VEGF RT-PCR. To be noted: human hair follicle dermal papilla cells, 24 hours. The procedure: as §1, with “isolate” for “separate”, “respective KGF, bFGF, and VEGF” for “TGF-β1”, “levels of the growth factors” for “levels”
In assay [12] the test system is MSX2. Description: MSX2 RT-PCR. To be noted: human hair follicle dermal papilla cells, 24 hours. On the procedure:
as §1, with “isolate” for “separate”, “MSX2” for “TGF-β1”

Ends that are not written are not given here.

As for Arg-Arg-Lys-Ile (RRKI) [SEQ ID NO: 1], the “nuclear translocation due to the increase in activity of β-catenin” value in assay [1] is recorded as “stimulated”. In assay [2], the “mRNA expression of TGF-β1” value was “inhibited”. Further, the PI3K expression entry in [3] is on record as “increase”. For the same substance, in [4], the “expression of the apoptosis inhibiting protein Bcl-2” value is recorded as “increase”. In addition, the “mRNA expression of bFGF” value in [5] is “increased”. Further, in assay [6], the “growth of human hair follicle dermal papilla cells” value (“growth” below) is on record as “stimulated in a dose-dependent manner”. In assay [7], the “expression of the apoptosis-related protein Bax” value is recorded as “decrease”. Besides, the “mRNA expression of keratin-14” value in assay [8] is on record as “increased”. Moreover, the ERK phosphorylation entry in assay [9] is listed as “increase”. In assay [10], the “mRNA expression of KGF” value is “increased”.
On to Ile-Tyr-Phe-Tyr (IYFY) [SEQ ID NO: 2], for which the “nuclear translocation due to the increase in activity of β-catenin” value in [1] is “stimulated”. For the same substance, in assay [2], the “mRNA expression of TGF-β1” value is on record as “inhibited”. For the same substance, the PI3K expression result in assay [3] was “increase”. Also, in assay [11], the “mRNA expression of VEGF” value is recorded as “increased”. Moreover, the “growth” value in assay [6] was “stimulated in a dose-dependent manner”. For the same substance, the ERK phosphorylation entry in assay [9] was “increase”. Moreover, the “mRNA expression of MSX2” value in [12] was “stimulated”.
For KKFIQQVYLAI [SEQ ID NO: 3], the “nuclear translocation due to the increase in activity of β-catenin” value in assay [1] is recorded as “stimulated”. For the same substance, the PI3K expression entry in assay [3] is “increase”. Further, the “expression of the apoptosis inhibiting protein Bcl-2” value in assay [4] was “increase”. Moreover, the “mRNA expression of bFGF” value in [5] was “increased”. Besides, in assay [11], the “mRNA expression of VEGF” value was “increased”. Moreover, the “growth” value in [6] is on record as “stimulated in a dose-dependent manner”. In addition, in assay [7], the “expression of the apoptosis-related protein Bax” value is “decrease”. Besides, the ERK phosphorylation entry in [9] is “increase”. Also, in assay [12], the “mRNA expression of MSX2” value was “stimulated”.
